Columns and labels:
[1] = molecular target: Tyrosine-protein kinase JAK1 (Homo sapiens, UniProt P23458); assay: HTRF Biochemical Assay; conditions: 25 °C
[2] = molecular target: Tyrosine-protein kinase JAK2 (Homo sapiens, UniProt O60674); assay: HTRF Biochemical Assay; conditions: 25 °C
Chain of Tyrosine-protein kinase JAK2 (O60674 whole entry): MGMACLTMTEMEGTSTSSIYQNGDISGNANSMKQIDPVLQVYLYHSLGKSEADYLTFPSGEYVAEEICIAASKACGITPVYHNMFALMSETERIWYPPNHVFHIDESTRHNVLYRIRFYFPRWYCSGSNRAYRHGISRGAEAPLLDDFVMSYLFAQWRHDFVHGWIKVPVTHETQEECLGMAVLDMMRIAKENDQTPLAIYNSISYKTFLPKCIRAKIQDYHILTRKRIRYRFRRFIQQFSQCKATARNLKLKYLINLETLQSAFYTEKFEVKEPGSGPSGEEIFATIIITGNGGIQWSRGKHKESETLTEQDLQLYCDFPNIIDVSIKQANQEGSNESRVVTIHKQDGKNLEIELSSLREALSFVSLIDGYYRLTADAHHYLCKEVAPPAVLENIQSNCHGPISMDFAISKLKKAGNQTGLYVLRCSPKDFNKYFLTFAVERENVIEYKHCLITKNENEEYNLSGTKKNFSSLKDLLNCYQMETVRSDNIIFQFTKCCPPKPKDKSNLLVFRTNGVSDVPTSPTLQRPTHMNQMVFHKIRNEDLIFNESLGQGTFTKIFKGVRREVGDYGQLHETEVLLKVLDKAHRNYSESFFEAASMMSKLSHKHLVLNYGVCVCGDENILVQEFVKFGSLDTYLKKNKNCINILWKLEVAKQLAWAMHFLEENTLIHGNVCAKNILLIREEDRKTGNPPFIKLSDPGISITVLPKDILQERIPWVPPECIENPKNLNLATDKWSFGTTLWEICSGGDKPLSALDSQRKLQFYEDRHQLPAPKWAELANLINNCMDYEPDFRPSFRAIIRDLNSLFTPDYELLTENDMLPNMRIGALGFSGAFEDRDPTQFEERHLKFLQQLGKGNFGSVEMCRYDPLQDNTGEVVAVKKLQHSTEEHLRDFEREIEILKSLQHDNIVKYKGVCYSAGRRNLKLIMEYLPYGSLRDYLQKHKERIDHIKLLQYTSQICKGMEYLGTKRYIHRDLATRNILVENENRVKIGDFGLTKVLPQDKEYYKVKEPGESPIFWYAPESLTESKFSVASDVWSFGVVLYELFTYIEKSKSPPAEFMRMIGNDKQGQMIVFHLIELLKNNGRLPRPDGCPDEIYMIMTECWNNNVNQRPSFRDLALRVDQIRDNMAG

Chain of Tyrosine-protein kinase JAK1 (P23458 whole entry): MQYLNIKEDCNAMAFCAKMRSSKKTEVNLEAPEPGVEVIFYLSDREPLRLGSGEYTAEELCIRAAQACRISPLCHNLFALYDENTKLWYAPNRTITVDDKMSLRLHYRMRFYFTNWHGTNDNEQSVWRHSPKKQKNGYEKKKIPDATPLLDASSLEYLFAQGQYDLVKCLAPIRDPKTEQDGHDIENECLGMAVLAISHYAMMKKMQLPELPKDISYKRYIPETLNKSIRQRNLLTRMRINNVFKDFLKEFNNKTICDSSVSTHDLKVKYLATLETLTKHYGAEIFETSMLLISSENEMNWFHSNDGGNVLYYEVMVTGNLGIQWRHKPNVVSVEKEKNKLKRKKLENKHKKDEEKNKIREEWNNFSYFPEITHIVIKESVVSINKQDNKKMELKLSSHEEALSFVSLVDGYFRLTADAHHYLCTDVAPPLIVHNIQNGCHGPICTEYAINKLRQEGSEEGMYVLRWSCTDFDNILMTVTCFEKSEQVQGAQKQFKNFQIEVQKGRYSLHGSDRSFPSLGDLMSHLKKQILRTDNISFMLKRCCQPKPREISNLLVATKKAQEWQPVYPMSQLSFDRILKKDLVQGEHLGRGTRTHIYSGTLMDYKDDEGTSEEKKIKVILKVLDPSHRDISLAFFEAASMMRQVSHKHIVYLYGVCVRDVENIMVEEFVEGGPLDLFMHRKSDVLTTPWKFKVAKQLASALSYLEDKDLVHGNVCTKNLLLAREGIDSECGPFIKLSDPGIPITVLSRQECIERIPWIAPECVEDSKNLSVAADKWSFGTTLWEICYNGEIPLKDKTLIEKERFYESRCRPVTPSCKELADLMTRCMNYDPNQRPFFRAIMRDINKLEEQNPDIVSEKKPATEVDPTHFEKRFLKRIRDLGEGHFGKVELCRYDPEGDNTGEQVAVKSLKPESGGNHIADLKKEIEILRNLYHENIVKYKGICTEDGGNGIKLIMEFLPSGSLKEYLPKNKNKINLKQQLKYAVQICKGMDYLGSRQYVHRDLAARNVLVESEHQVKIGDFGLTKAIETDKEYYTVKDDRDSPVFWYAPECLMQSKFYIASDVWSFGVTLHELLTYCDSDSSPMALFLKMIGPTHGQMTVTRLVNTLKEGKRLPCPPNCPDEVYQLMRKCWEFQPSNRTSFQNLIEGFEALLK

IC50 [1]: 1 nM | IC50 [2]: 40 nM
SMILES: Cc1cc(F)c(Nc2ccnc3c2C(=O)Nc2cc(CN4CC[C@@H](N)C4)ccc2N3)cc1O [US9328099, 29-A]

Source: BindingDB's records for patent US9328099 (Merck Sharp & Dohme, 2016)
